Measured values published in patent US20240150321A1, “PYRAZOLYLSULFONAMIDE COMPOUNDS AND THEIR USE IN THERAPY” (HOTSPOT THERAPEUTICS, INC., priority 2022, published 2024).
Like-named read-outs stand apart in the source and are kept apart here.

Key:
Avi-tagged FL MALT-1 = Avi-tagged FL MALT-1 (Homo sapiens (Human), UniProt Q9UDY8); assay: MALT-1 Fluorogenic Peptide Cleavage Assay (MALT1 inhibition assay); type: biochemical; conditions: Ac-LRSR-AMC peptide substrate, 30 min pre-incubation, 90 min reaction at room temperature
Chain of Avi-tagged FL MALT-1 (Q9UDY8 whole entry): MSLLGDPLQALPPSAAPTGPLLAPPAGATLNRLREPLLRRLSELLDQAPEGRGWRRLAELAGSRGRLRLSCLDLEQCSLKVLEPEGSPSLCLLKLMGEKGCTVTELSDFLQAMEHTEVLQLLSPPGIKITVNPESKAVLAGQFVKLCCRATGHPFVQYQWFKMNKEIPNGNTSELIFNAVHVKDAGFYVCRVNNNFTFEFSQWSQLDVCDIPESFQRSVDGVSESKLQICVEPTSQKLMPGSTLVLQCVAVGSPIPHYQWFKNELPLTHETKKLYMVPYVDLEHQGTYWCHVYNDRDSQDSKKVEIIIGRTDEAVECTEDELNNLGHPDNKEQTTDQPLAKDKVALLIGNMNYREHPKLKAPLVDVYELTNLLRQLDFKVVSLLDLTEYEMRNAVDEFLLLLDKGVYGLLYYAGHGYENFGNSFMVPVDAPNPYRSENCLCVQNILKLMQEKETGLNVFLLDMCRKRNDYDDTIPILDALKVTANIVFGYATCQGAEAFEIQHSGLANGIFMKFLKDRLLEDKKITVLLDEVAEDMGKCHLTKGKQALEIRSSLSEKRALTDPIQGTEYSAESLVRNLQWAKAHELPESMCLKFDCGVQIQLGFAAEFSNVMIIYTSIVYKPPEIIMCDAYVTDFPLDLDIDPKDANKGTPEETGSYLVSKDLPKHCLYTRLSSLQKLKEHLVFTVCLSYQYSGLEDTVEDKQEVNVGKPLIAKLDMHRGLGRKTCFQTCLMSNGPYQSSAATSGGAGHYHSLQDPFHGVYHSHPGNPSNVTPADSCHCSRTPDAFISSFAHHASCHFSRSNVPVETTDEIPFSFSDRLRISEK
In short: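 Full-length Avi-tagged human MALT-1 (40 nM working stock) pre-incubated 30 min at RT with compound in 25 mM HEPES pH 6.89, 660 mM sodium citrate, 1 mM TCEP, […], 0.05% CHAPS, 2% DMSO. Ac-LRSR-AMC added at Km (50 μM working stock) or 10×Km (280 μM working stock); 90 min at RT, AMC fluorescence (ex 342/em 441 nm), IC50 from % inhibition curves.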

[1] = system: NF-kB reporter in Jurkat cells; assay: NF-kB reporter assay in Jurkat cells stimulated with aCD3/aCD28/PMA; type: cell-based; conditions: read-out: NF-kB Reporter Assay IC50, Jurkat cells, 1 hr compound pre-incubation, aCD3/aCD28/PMA stimulation 4 hr, One-Glo readout
In short: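 Jurkat cells (25,000/well, serum-free RPMI) were pre-incubated 1 h at 37° C with serially diluted compound, then stimulated 4 h with aCD3/aCD28/PMA at final […]. NF-kB reporter activity was read by One-Glo luminescence; IC50 values reported.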

Structure (SMILES)	IC50 (Avi-tagged FL MALT-1) [nM]	IC50 ([1]; Homo sapiens) [nM]	IC50 [1] [nM]
CCC(O)c1ccnc(-n2cc(S(=O)(=O)Nc3c(OC)ccc4cnn(C)c34)cn2)c1 (single isomer, unassigned) [Compound I-280, 1-(4-(1-hydroxypropyl)pyridin-2-yl)-N-(6-methoxy-1-methyl-1H-indazol-7-yl)-1H-pyrazole-4-sulfonamide]	400 to 1000		< 400
CCc1ccc2c(c(C)nn2C)c1NS(=O)(=O)c1cnn(-c2ccnc(C(F)(F)F)c2)c1 [Compound I-40, N-(5-ethyl-1,3-dimethyl-1H-Indazol-4-yl)-1-(2-(Trifluoromethyl)Pyridin-4-yl)-1H-Pyrazole-4-Sulfonamide]	≤ 400	400 to 1000	
CCc1ccc2cnn(C)c2c1NS(=O)(=O)c1cnn(-c2ccnc(C(F)(F)F)c2)n1 [Compound I-28, N-(6-Ethyl-1-Methyl-1H-Indazol-7-yl)-2-(2-(Trifluoromethyl) Pyridin-4-yl)-2H-1,2,3-Triazole-4-Sulfonamide]	≤ 400	400 to 1000	
Cn1nc(Cl)c2cccc(NS(=O)(=O)c3cnn(-c4cc(C(F)(F)F)ccn4)c3)c21 [Compound I-111, N-(3-chloro-1-methyl-1H-indazol-7-yl)-1-(4-(trifluoromethyl)pyridin-2-yl)-1H-pyrazole-4-sulfonamide]	> 2500	< 400	
COc1ncc2cnn(C)c2c1NS(=O)(=O)c1cnn(-c2cc(C(C)(C)C)ccn2)c1 [Compound I-127, 1-(4-(tert-butyl)pyridin-2-yl)-N-(6-methoxy-1-methyl-1H-pyrazolo[4,3-c]pyridin-7-yl)-1H-pyrazole-4-sulfonamide]	≤ 400	< 400	
CCc1ccc2cnn(C)c2c1NS(=O)(=O)c1cnn(-c2cc(C)nc(C)c2)c1 [Compound I-32, 1-(2,6-Dimethylpyridin-4-yl)-N-(6-ethyl-1-Methyl-1H-Indazol-7-yl)-1H-Pyrazole-4-Sulfonamide]	≤ 400	400 to 1000	
COc1ccc2cnn(C)c2c1NS(=O)(=O)c1cnn(-c2cc(N3CC4(CC4)C3)ccn2)c1 [Compound I-371, 1-(4-(5-azaspiro[2.3]hexan-5-yl)pyridin-2-yl)-N-(6-methoxy-1-methyl-1H-indazol-7-yl)-1H-pyrazole-4-sulfonamide]	> 2500	< 400	
CN1C[C@@H](n2cc(S(=O)(=O)Nc3cccc4cnn(C)c34)cn2)CCC1=O [Compound I-351]	> 2500	> 2500	

More lines, main results first:

IC50 (Avi-tagged FL MALT-1) [nM]	IC50 ([1]; Homo sapiens) [nM]	Structure (SMILES)	IC50 [1] [nM]
400 to 1000	< 400	COc1ccc2cnn(C)c2c1NS(=O)(=O)c1cnn(-c2cc(C(C)O)ccn2)c1 (centres unmarked) [Compound I-134, 1-(4-(1-hydroxyethyl)pyridin-2-yl)-N-(6-methoxy-1-methyl-1H-indazol-7-yl)-1H-pyrazole-4-sulfonamide]	
≤ 400	< 400	CCN(c1c(OC)ccc2cnn(C)c12)S(=O)(=O)c1cnn(-c2ccnc(C(F)(F)F)c2)c1 [Compound I-26, N-(6-Methoxy-1-Methyl-1H-Indazol-7-yl)-N-Ethyl-1-(2-(Trifluoromethyl)Pyridin-4-yl)-1H-Pyrazole-4-Sulfonamide]	
≤ 400	1000 to 2500	Cn1ncc2ccc(OC3CC3)c(NS(=O)(=O)c3cnn(-c4ccnc(C(F)(F)F)c4)c3)c21 [Compound I-55, N-(6-Cyclopropoxy-1-Methyl-1H-Indazol-7-yl)-1-(2-(Trifluoromethyl)Pyridin-4-yl)-1H-Pyrazole-4-Sulfonamide]	
400 to 1000	400 to 1000	Cn1ncc2ccc(F)c(NS(=O)(=O)c3cnn(-c4cc(C(F)(F)F)ccn4)c3)c21 [Compound I-136, N-(6-fluoro-1-methyl-1H-indazol-7-yl)-1-(4-(trifluoromethyl)pyridin-2-yl)-1H-pyrazole-4-sulfonamide]	
> 2500	> 2500	Cn1ncc2cccc(NS(=O)(=O)c3cnn(-c4cc(N5CC(C)(C(N)=O)C5)ccn4)c3)c21 [Compound I-458]	
